In brackets after ≈: the same amount, converted by molar mass. Where a name gives a salt, the structure may show the parent alone. Read-outs that look alike come from different tables or passages of the source. Values belong to the molecule of their own block, whether it stands above or below them.
Experiments:
[1] = target: Leucyl-tRNA synthetase (LeuRS) (Escherichia coli (strain K12), UniProt P07813); assay: Leucyl-tRNA synthetase enzyme inhibition (AMP-Glo; single point % inhibition at 100 μM and IC50); format: biochemical
Leucyl-tRNA synthetase (LeuRS), sequence (P07813 whole entry, looked up): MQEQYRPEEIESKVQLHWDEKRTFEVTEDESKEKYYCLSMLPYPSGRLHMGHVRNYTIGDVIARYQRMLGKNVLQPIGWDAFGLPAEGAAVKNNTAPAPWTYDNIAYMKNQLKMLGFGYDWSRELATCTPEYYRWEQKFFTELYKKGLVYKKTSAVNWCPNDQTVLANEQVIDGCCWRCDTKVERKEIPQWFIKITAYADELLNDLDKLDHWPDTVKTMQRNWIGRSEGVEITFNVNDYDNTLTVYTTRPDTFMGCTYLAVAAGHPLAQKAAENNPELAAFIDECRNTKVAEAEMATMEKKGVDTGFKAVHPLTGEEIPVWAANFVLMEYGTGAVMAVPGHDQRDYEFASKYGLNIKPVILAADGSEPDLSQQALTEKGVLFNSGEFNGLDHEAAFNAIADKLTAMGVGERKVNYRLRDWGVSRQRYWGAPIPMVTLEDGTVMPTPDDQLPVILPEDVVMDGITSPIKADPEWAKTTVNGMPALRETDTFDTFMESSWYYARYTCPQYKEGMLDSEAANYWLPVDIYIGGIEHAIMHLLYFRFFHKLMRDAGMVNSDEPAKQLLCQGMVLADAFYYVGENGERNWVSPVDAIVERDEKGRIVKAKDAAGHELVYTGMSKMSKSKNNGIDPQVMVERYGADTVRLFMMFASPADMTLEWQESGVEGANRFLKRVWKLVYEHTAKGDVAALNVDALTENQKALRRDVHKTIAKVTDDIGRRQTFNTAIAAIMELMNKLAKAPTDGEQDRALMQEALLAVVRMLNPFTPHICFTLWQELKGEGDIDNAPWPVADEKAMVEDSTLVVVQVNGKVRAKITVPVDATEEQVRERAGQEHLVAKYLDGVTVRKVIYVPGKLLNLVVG
Excerpt: Study 1—Enzyme Inhibition
The aminoacylation reaction catalyzed by aminoacyl-tRNA synthetases (aaRS) takes place in two steps. In the first step, aaRS activates its cognate amino acid with ATP; and in the second step the activated amino acid is loaded to its corresponding tRNA. This reaction can be summarized as follows: aaRS+aa+ATP=aaRS-aa-AMP+PPi aaRS-aa-AMP+tRNA=aa-tRNA+AMP+aaRS
wherein: aaRS, aminoacyl-tRNA synthetase; aa, amino acid; aaRS-aa-AMP, enzyme-bound to aminoacyl-adenylate; AMP, adenosine monophosphate; aa-tRNA, aminoacyl-tRNA, PPi, inorganic pyrophosphate.
a. Single Point Percentage Inhibition
The activity of the pathogenic aaRSs was monitored by measuring AMP production using the commercial kit AMP-Glo (Promega, Madison, USA).
Ligand stock solutions were prepared in 100% DMSO at 10 mM concentration. An assay buffer consisting of 100 mM Tris HCl pH 7.6, 40 mM MgCl, 20 mM KCl and 150 mM NaCl was prepared in dH2O.
Using the same enzymatic assay in a 384-well plate format, ten point concentration response curves were generated for each compound using a top concentration of 10 μM. The known inhibitor LeuAMS was used as a positive control for the LeuRS assay. 100% DMSO was used as a negative control. The IC50 was calculated based on non-linear regression analysis.

[2] = tested on: bacteria (ATCC reference strains); assay: Antibacterial activity, MIC by broth micro-dilution (CLSI)
[3] = Acinetobacter baumannii, read-out: Antibacterial Activity (MIC), E = A. baumannii B1931
[4] = Enterobacter cloacae, read-out: Antibacterial Activity (MIC), B = Enterobacter cloacae B1966
[5] = Escherichia coli, ATCC25922, read-out: Antibacterial Activity (MIC), A = E. coli ATCC 25922
[6] = Escherichia coli, BAA2469, read-out: Antibacterial Activity (MIC), G = E. coli BAA-2469
[7] = Klebsiella pneumoniae, ATCC700603, read-out: Antibacterial Activity (MIC), C = K. pneumoniae ATCC 700603
[8] = Pseudomonas aeruginosa, ATCC27853, read-out: Antibacterial Activity (MIC), D = P. aeruginosa ATCC 27853
[9] = E. coli LeuRS, read-out: Enzyme Inhibition - IC50, E. coli LeuRS

SMILES: CC(C)C[C@H](N)C(=O)N=S(N)(=O)c1nc(Cl)cs1 (mixture of isomers) [ANASIA-045]
- IC50 [1]: 5520 nM

SMILES: CC(C)C[C@H](N)C(=O)N=[S@](N)(=O)c1cccs1.Cl (single isomer, unassigned) [ANASIA-007-1]
- MIC [2, 3]: 8 µg/mL
- MIC [2, 4]: 8 µg/mL
- MIC [2, 5]: 1 µg/mL
- MIC [2, 6]: 5.04 µg/mL
- MIC ([2]; Haemophilus influenzae, ATCC49247, read-out: Antibacterial Activity (MIC), F = H. influenzae ATCC 49247): 2 µg/mL
- MIC [2, 7]: 8 µg/mL
- MIC [2, 8]: 16 µg/mL

- MIC [2, 3]: 32 µg/mL (≈ 116 µM)
- MIC [2, 4]: > 64 µg/mL
- MIC [2, 5]: 4 µg/mL (≈ 14.5 µM)
- MIC [2, 6]: 64 µg/mL (≈ 232 µM)
- MIC [2, 7]: > 64 µg/mL
- MIC [2, 8]: 64 µg/mL (≈ 232 µM)
SMILES: Cc1csc([S@@](N)(=O)=NC[C@@H](N)CC(C)C)n1 [ANASIA-004-1]

SMILES: CN[S@@](=O)(=NC(=O)[C@@H](N)CC(C)C)c1ccccc1 [ANASIA-010-1, (S)-2-amino-4-methyl-N—((S)-(methylamino)(oxo)(phenyl)-λ6-sulfanylidene)pentanamide]
- IC50 [1]: 9150 nM

SMILES: CC(C)C[C@H](N)C(=O)N=[S@@](N)(=O)c1cccc(Br)c1 [ANASIA-044-2]
- IC50 [1, 9]: 2160 nM

- MIC [2, 3]: 64 µg/mL
- MIC [2, 4]: > 64 µg/mL
- MIC [2, 5]: 4 µg/mL
- MIC [2, 6]: 45.3 µg/mL
- MIC [2, 7]: > 64 µg/mL
- MIC [2, 8]: > 64 µg/mL
SMILES: CC(C)C[C@H](N)C(=O)N=[S@](N)(=O)c1nc(Cl)cs1.Cl [ANASIA-045-1]

SMILES: CC(C)C[C@H](N)C(=O)N=S(N)(=O)c1ccc2c(c1)CCO2 (stereo partly drawn) [ANASIA-048]
- IC50 [1, 9]: 6530 nM

SMILES: CC(C)C[C@H](N)C(=O)N=[S@@](N)(=O)c1cccc(C(C)(C)C)c1 [ANASIA-049-2]
- IC50 [1, 9]: 2630 nM

SMILES: N[C@@H](CC1CC1)C(=O)N=[S@](N)(=O)c1ccccc1 [ANASIA-050-1]
- IC50 [1]: 4330 nM

SMILES: CC(C)C[C@H](N)C(=O)N=S(N)(=O)c1ccncc1 (stereo partly drawn) [ANASIA-059-1, (2S)-2-amino-N-(amino(oxo)(pyridin-4-yl)-λ^6-sulfanylidene)-4-methylpentanamide]
- inhibition at 10 µM ([1]; read-out: Enzyme inhibition, E. coli LeuRS, % at 10 μM): 46%

SMILES: CC(C)C[C@H](N)C(=O)N=[S@@](N)(=O)c1cc(F)cs1 [ANASIA-062-2]
- IC50 [1, 9]: 715 nM

SMILES: CC(C)C[C@H](N)C(=O)N=S(N)(=O)c1cc(C#N)ccc1F (stereo partly drawn) [ANASIA-065]
- IC50 [1, 9]: 670 nM

SMILES: CC(C)C[C@H](N)C(=O)N=[S@](N)(=O)c1cc(-c2ccccc2)cs1 [ANASIA-067-1]
- IC50 [1]: 1920 nM

SMILES: CC(C)C[C@H](N)C(=O)N=S(N)(=O)c1ccn(C)n1 (stereo partly drawn) [ANASIA-073]
- IC50 [1]: 238 nM

SMILES: CC(C)C[C@H](N)C(=O)N=[S@@](N)(=O)c1ccccn1 [ANASIA-075-2]
- IC50 [1, 9]: 2540 nM

SMILES: CC(C)C[C@H](N)C(=O)N=S(N)(=O)c1sc(Cl)nc1Cl (stereo partly drawn) [ANASIA-076]
- IC50 [1, 9]: 2260 nM

SMILES: CC(C)C[C@H](N)C(=O)N=[S@@](N)(=O)c1scc(Cl)c1Cl [ANASIA-081-2]
- IC50 [1, 9]: 488 nM

SMILES: CC(C)C[C@H](N)C(=O)N=S(N)(=O)c1cc2sccc2s1 (stereo partly drawn) [ANASIA-082]
- IC50 [1, 9]: 449 nM

SMILES: CC(C)C[C@H](N)C(=O)N=[S@@](N)(=O)c1csc2ccccc12 [ANASIA-083-2]
- IC50 [1, 9]: 2300 nM

SMILES: C=CCc1cccc(S(N)(=O)=NC(=O)[C@@H](N)CC(C)C)c1 (stereo partly drawn) [ANASIA-085, (2S)—N-((3-allylphenyl)(amino)(oxo)-λ6-sulfanylidene)-2-amino-4-methylpentanamide hydrochloride]
- IC50 [1, 9]: 594 nM

SMILES: Cc1ccccc1[S@@](N)(=O)=NC(=O)[C@@H](N)CC(C)C [ANASIA-086-1]
- IC50 [1]: 3330 nM

SMILES: CC(C)C[C@H](N)C(=O)N=[S@](N)(=O)c1ccccc1F [ANASIA-087-2]
- IC50 [1, 9]: 4920 nM

SMILES: CC(C)C[C@H](N)C(=O)N=[S@@](N)(=O)c1cccc(OC(F)F)c1 [ANASIA-088-2]
- IC50 [1, 9]: 1560 nM

SMILES: CC(C)C[C@H](N)C(=O)N=[S@@](N)(=O)c1cccc(C(F)(F)F)c1 [ANASIA-089-2]
- IC50 [1]: 2390 nM

SMILES: CC(C)C[C@H](N)C(=O)N=S(N)(=O)c1cccc(OC(F)(F)F)c1 (stereo partly drawn) [ANASIA-090]
- IC50 [1, 9]: 199 nM

SMILES: Cc1sccc1[S@](N)(=O)=NC(=O)[C@@H](N)CC(C)C [ANASIA-091-2]
- IC50 [1, 9]: 8150 nM
